{"source": "paper PMC3447791", "about": "“High Mannose-Binding Antiviral Lectin PFL from Pseudomonas fluorescens Pf0-1 Promotes Cell Death of Gastric Cancer Cell MKN28 via Interaction with α2-Integrin” (PLoS ONE, 2012)", "key": {"[1]": {"target": "T1, PFL (Pseudomonas fluorescens, UniProt Q3KJ04)", "T1 construct": "gene Pfl01_0508; full length, 132 residues, two homologous domains; pET101/D-TOPO with native stop codon, E. coli BL21 Star (DE3); Alexa Fluor 488 labelled for the array", "T1 sequence (Q3KJ04 2-133)": "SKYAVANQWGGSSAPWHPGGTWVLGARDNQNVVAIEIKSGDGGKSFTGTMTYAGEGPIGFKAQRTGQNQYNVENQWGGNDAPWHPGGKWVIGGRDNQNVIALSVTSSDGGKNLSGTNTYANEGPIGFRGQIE", "assay": "CFG printed glycan microarray v5.[…], fluorescence", "type": "binding", "settings": "10 μg/ml Alexa488-PFL; glycan immobilised on array"}, "[2]": {"target": "T1, PFL", "assay": "CFG printed glycan microarray v5.[…], fluorescence", "type": "binding", "settings": "10 μg/ml Alexa488-PFL; glycan immobilised on array", "remark": "listed apart in the source"}}, "data": [{"substance": "M6 glycan [compound 216]", "values": [{"measurement": "RFU", "setting": "[1]", "value": 43471, "unit": "RFU"}]}, {"substance": "M7 glycan [compound 211]", "values": [{"measurement": "binding potency relative to M6 glycan (216)", "setting": "[2]", "value": "~ 53%"}]}, {"substance": "M8 glycan [compound 212]", "values": [{"measurement": "RFU", "setting": "[1]", "value": 40759, "unit": "RFU"}]}, {"substance": "fucosylated counterpart of pentasaccharide core of N-glycan (50) [compound 485]", "values": [{"measurement": "RFU", "setting": "[1]", "value": 746, "unit": "RFU"}]}]}
